Values quoted from earlier work in patent publication US6447807B1, “Potassium (-)-hydroxycitric acid methods for pharmaceutical preparations for stable and controlled delivery” (priority 1999, dated 2002).

Settings: single large oral dose, or two divided oral doses totaling one fourth of it; animals fed a high-sugar diet

O=C(O)CC(O)(C(=O)O)C(O)C(=O)O (single isomer, unassigned; (-)) [HCA, (−)-Hydroxycitric acid]
reduction in food consumption: ≥ 10%
